Assay results: PMC4685510, “A Cell Biologist’s Field Guide to Aurora Kinase Inhibitors” (Frontiers in Oncology, 2015)

Key:
Assay in all cases: biochemical
Type in all cases: biochemical
[1] = target: 363 human kinases (including Aurora A/B/C) (Homo sapiens, UniProt Q9HCP0); conditions: CK1g1, [ATP] 20 µM; for remaining activity at 0.1 µM: 100 nM; for remaining activity at 0.1 µM / remaining activity at 0.5 µM: read-out: % Enzyme Activity (relative to DMSO controls)
Excerpt: (§1) However, the Aurora A/B selectivity ratios derived from our in vitro and in vivo data can be compared to prioritize inhibitors.

[2] = target: 363 human kinases (including Aurora A/B/C) (Homo sapiens, UniProt Q02763); conditions: TIE2/TEK; for remaining activity at 0.1 µM: 100 nM; for remaining activity at 0.1 µM / remaining activity at 0.5 µM: read-out: % Enzyme Activity (relative to DMSO controls)
Excerpt: as §1

[3] = target: 363 human kinases (including Aurora A/B/C) (Homo sapiens, UniProt P17948); conditions: FLT1/VEGFR1, [ATP] 2.5 µM; for remaining activity at 0.1 µM: 100 nM; for remaining activity at 0.1 µM / remaining activity at 0.5 µM: read-out: % Enzyme Activity (relative to DMSO controls)
363 human kinases (including Aurora A/B/C) (Homo sapiens, UniProt P17948), sequence (P17948 27-1338): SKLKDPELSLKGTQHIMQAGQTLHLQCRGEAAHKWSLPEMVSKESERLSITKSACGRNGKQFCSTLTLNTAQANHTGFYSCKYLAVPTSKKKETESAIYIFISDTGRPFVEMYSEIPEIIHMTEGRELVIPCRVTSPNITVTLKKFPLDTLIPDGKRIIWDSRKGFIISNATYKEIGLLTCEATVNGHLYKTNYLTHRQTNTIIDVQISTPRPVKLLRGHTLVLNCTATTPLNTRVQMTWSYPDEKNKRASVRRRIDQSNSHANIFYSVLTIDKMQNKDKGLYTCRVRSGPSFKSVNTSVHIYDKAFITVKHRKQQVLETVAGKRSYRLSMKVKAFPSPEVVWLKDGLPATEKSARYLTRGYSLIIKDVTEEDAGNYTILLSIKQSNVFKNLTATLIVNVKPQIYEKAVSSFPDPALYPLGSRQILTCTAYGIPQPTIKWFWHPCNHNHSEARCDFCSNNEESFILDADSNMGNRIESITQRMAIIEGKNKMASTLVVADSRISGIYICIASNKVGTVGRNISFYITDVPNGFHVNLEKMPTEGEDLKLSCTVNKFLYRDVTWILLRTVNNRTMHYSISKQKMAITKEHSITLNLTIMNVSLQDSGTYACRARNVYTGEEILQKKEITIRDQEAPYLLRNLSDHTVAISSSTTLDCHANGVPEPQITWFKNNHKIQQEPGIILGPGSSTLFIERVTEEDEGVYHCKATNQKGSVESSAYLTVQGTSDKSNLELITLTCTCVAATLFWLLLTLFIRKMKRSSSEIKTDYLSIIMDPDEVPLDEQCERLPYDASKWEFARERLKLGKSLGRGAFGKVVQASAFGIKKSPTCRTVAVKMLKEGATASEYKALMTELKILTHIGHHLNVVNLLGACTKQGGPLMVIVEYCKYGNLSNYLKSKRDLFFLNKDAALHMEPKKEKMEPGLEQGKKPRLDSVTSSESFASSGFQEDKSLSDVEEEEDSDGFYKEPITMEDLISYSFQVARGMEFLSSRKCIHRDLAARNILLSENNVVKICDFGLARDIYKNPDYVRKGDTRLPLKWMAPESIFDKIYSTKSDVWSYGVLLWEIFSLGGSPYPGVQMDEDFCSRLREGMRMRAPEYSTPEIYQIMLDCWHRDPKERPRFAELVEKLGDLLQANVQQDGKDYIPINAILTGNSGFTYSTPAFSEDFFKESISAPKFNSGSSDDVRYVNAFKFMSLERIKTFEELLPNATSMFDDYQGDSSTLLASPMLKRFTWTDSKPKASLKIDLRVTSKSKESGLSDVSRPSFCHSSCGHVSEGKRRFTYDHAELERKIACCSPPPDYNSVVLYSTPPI
Excerpt: as §1

[4] = target: 363 human kinases (including Aurora A/B/C) (Homo sapiens, UniProt P41279); conditions: COT1/MAP3K8, [ATP] 50 µM; for remaining activity at 0.1 µM: 100 nM; for remaining activity at 0.1 µM / remaining activity at 0.5 µM: read-out: % Enzyme Activity (relative to DMSO controls)
363 human kinases (including Aurora A/B/C) (Homo sapiens, UniProt P41279), sequence (P41279 whole entry): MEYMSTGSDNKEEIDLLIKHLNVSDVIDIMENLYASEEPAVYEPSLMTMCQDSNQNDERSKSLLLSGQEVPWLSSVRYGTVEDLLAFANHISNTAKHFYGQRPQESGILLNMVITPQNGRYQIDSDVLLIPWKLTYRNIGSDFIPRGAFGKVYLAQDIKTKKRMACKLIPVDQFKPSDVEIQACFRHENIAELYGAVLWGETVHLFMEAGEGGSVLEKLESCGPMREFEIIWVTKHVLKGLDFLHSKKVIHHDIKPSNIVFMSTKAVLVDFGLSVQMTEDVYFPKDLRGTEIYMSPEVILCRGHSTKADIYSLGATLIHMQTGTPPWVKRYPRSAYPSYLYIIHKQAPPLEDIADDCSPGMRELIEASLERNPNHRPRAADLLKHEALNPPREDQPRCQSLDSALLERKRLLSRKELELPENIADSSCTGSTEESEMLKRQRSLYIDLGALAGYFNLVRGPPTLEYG
Excerpt: as §1

[5] = target: 363 human kinases (including Aurora A/B/C) (Homo sapiens, UniProt Q9NY57); conditions: STK32B/YANK2; for remaining activity at 0.1 µM: 100 nM; for remaining activity at 0.1 µM / remaining activity at 0.5 µM: read-out: % Enzyme Activity (relative to DMSO controls)
363 human kinases (including Aurora A/B/C) (Homo sapiens, UniProt Q9NY57), sequence (Q9NY57 whole entry): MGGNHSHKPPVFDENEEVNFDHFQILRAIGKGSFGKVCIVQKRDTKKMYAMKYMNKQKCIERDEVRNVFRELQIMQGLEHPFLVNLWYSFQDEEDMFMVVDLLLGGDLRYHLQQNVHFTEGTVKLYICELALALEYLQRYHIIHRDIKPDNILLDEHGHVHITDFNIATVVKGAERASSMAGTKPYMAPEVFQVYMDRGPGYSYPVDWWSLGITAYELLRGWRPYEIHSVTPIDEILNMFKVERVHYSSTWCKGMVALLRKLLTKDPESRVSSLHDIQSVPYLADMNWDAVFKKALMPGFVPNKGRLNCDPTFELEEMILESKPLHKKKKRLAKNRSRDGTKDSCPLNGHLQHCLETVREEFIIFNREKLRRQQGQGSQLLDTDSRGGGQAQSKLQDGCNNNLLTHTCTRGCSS
Excerpt: as §1

[6] = target: 363 human kinases (including Aurora A/B/C) (Homo sapiens, UniProt Q9Y5S2); conditions: MRCKb/CDC42BPB; for remaining activity at 0.1 µM: 100 nM; for remaining activity at 0.1 µM / remaining activity at 0.5 µM: read-out: % Enzyme Activity (relative to DMSO controls)
Excerpt: as §1

[7] = target: T1, 363 human kinases (including Aurora A/B/C) (Homo sapiens, UniProt O43318); conditions: TAK1; for remaining activity at 0.1 µM: 100 nM; for remaining activity at 0.1 µM / remaining activity at 0.5 µM: read-out: % Enzyme Activity (relative to DMSO controls)
T1 sequence (O43318 1-606): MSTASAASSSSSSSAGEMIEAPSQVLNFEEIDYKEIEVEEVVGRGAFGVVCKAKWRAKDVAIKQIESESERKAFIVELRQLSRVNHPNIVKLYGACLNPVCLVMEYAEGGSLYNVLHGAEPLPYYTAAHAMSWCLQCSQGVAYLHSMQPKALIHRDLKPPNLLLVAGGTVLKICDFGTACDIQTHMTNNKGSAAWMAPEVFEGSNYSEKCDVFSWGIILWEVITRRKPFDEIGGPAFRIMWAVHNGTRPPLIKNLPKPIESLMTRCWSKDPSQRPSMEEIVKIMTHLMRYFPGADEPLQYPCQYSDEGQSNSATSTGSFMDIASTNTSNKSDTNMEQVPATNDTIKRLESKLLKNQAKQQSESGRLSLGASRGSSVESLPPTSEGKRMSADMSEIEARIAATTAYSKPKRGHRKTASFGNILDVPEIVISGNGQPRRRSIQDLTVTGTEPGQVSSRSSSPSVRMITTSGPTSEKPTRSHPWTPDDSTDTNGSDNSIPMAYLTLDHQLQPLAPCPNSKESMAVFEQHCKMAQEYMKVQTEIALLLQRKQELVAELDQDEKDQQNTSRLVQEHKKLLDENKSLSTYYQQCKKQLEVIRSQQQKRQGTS
Excerpt: as §1

[8] = target: T2, 363 human kinases (including Aurora A/B/C) (Homo sapiens, UniProt P46734); conditions: MEK3; for remaining activity at 0.1 µM: 100 nM; for remaining activity at 0.1 µM / remaining activity at 0.5 µM: read-out: % Enzyme Activity (relative to DMSO controls)
T2 sequence (P46734 1-347): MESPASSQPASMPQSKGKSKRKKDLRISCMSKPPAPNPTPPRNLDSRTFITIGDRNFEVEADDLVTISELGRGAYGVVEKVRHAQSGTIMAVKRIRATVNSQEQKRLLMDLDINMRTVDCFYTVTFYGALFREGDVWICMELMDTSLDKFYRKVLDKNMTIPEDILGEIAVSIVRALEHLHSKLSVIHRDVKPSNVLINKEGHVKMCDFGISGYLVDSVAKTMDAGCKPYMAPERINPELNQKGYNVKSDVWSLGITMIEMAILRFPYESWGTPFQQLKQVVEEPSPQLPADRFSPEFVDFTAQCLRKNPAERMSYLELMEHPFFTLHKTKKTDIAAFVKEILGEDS
Excerpt: as §1

[9] = target: T3, 363 human kinases (including Aurora A/B/C) (Homo sapiens, UniProt Q8IVT5); conditions: KSR1; for remaining activity at 0.1 µM: 100 nM; for remaining activity at 0.1 µM / remaining activity at 0.5 µM: read-out: % Enzyme Activity (relative to DMSO controls)
T3 sequence (Q8IVT5 1-923): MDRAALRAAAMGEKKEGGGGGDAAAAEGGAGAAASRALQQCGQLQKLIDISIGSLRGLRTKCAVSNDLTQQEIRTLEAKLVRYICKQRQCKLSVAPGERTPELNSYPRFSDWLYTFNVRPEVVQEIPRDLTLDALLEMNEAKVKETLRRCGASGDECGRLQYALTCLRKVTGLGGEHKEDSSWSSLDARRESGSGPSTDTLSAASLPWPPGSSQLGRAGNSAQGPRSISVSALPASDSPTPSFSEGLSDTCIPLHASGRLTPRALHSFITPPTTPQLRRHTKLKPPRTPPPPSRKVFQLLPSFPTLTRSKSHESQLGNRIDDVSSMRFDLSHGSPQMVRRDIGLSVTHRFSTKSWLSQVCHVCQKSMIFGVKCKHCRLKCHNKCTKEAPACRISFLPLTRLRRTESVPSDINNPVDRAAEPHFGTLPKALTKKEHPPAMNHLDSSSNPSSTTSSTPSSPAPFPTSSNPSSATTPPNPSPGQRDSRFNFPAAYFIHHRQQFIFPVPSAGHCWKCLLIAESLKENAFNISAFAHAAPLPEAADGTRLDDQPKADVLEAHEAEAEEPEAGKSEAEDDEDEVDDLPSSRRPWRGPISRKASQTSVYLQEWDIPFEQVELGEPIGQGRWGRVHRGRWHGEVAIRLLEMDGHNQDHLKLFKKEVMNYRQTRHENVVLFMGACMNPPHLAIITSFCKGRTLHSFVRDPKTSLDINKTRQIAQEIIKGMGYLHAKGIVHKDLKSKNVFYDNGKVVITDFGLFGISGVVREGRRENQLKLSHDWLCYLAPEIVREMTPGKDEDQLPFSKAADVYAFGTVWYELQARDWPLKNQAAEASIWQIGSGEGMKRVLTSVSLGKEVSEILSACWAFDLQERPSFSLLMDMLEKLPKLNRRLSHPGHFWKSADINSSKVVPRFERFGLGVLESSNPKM
Excerpt: as §1

[10] = target: 363 human kinases (including Aurora A/B/C) (Homo sapiens, UniProt Q16512); conditions: PKN1/PRK1; for remaining activity at 0.1 µM: 100 nM; for remaining activity at 0.1 µM / remaining activity at 0.5 µM: read-out: % Enzyme Activity (relative to DMSO controls)
363 human kinases (including Aurora A/B/C) (Homo sapiens, UniProt Q16512), sequence (Q16512 whole entry): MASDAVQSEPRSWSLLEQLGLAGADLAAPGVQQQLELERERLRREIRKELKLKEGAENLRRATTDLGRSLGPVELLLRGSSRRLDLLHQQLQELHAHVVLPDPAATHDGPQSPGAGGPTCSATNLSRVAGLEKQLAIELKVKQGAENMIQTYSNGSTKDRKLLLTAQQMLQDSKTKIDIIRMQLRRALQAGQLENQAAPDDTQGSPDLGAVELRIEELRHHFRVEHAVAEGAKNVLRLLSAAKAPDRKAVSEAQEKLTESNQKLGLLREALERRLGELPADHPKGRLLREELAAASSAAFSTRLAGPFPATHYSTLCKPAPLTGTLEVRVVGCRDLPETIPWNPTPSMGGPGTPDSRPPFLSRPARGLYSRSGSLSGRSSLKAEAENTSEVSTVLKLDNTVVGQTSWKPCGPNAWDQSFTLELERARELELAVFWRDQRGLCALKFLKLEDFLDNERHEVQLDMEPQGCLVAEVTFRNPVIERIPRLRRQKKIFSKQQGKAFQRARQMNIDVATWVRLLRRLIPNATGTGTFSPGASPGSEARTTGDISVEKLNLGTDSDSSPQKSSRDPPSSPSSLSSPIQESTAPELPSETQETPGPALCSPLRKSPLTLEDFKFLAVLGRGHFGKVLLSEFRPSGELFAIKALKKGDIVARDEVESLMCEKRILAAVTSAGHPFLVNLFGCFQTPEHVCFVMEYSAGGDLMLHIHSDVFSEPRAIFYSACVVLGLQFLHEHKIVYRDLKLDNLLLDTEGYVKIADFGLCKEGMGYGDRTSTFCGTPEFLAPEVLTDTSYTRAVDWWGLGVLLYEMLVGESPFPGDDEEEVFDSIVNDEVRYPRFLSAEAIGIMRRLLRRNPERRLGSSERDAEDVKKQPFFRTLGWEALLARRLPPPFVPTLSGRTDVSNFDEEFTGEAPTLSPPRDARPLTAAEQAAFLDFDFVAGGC
Excerpt: as §1

[11] = target: 363 human kinases (including Aurora A/B/C) (Homo sapiens, UniProt P22694); conditions: PKAcb; for remaining activity at 0.1 µM: 100 nM; for remaining activity at 0.1 µM / remaining activity at 0.5 µM: read-out: % Enzyme Activity (relative to DMSO controls)
Excerpt: as §1

[12] = target: 363 human kinases (including Aurora A/B/C) (Homo sapiens, UniProt Q9H3Y6); conditions: SRMS; for remaining activity at 0.1 µM: 100 nM; for remaining activity at 0.1 µM / remaining activity at 0.5 µM: read-out: % Enzyme Activity (relative to DMSO controls)
363 human kinases (including Aurora A/B/C) (Homo sapiens, UniProt Q9H3Y6), sequence (Q9H3Y6 whole entry): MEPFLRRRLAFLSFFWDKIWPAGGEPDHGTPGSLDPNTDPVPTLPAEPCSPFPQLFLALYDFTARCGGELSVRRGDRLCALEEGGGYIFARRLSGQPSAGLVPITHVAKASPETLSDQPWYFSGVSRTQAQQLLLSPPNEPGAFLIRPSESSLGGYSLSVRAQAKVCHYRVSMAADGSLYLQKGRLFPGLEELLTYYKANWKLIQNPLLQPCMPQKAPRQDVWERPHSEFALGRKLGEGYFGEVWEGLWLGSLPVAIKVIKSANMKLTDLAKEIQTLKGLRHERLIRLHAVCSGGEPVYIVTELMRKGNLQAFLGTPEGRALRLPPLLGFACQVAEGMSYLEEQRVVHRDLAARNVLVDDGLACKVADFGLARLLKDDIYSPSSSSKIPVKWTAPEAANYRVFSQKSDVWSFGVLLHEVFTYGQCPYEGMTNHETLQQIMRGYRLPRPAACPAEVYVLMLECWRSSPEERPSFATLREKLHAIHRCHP
Excerpt: as §1

363 human kinases (including Aurora A/B/C) (Homo sapiens, UniProt Q9HCP0), sequence (Q9HCP0 whole entry): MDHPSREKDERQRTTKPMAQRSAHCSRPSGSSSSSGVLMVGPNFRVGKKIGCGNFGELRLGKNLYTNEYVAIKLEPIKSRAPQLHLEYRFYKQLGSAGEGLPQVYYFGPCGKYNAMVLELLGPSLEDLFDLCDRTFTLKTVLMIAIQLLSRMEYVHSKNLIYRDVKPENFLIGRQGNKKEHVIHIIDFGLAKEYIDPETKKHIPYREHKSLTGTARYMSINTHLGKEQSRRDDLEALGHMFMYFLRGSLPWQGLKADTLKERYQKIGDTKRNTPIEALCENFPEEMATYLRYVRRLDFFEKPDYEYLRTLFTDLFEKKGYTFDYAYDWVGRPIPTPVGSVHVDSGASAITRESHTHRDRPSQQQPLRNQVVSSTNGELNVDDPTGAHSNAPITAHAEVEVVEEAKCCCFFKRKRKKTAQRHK

SMILES	remaining activity at 0.1 µM [1]	remaining activity at 0.1 µM [2]	remaining activity at 0.1 µM [3]	remaining activity at 0.1 µM [4]	remaining activity at 0.1 µM [5]	remaining activity at 0.1 µM [6]	remaining activity at 0.1 µM [7]	remaining activity at 0.1 µM [8]	remaining activity at 0.1 µM [9]	remaining activity at 0.1 µM [10]	remaining activity at 0.1 µM [11]	remaining activity at 0.1 µM [12]	remaining activity at 0.5 µM ([1]; 500 nM)	remaining activity at 0.5 µM ([2]; 500 nM)	remaining activity at 0.5 µM ([3]; 500 nM)	remaining activity at 0.5 µM ([4]; 500 nM)	remaining activity at 0.5 µM ([5]; 500 nM)	remaining activity at 0.5 µM ([6]; 500 nM)	remaining activity at 0.5 µM ([7]; 500 nM)	remaining activity at 0.5 µM ([8]; 500 nM)	also measured
CCn1cc(-c2ccnc3[nH]c(-c4cccc(CN(C)C)c4)cc23)c(-c2ccc(NC(=O)N(C)C)cc2)n1 [GSK1070916]	104%	39.1%	64.4%	87.8%	93.6%	103%	99%	105%	94.2%	103%	98%	95%	–	–	–	–	–	–	–	–	–
O=C(O)[C@]1(Cc2cccc(Nc3nccs3)n2)CC[C@@H](Oc2cccc(Cl)c2F)CC1 [MK-5108]	93.2%	37.9%	58.4%	101%	95.8%	90%	93.8%	89.7%	98.6%	96%	97.1%	95.1%	101%	9.27%	29.5%	91%	95.7%	104%	79.1%	99.7%	remaining activity at 0.5 µM ([9]; 500 nM): 98%; remaining activity at 0.5 µM ([10]; 500 nM): 115%; remaining activity at 0.5 µM ([11]; 500 nM): 98.5%; remaining activity at 0.5 µM ([12]; 500 nM): 94.8%
O=C(c1cccc(Cl)c1F)N1CCN(Cc2cccc(Nc3nccs3)n2)CC1 [MK-8745]	–	–	–	–	–	–	–	–	–	–	–	–	98.7%	98.2%	93.4%	91.3%	97.9%	102%	96.6%	75.7%	% Enzyme Activity (relative to DMSO controls) ([1]; 500 nM): 98.16%; % Enzyme Activity (relative to DMSO controls) ([2]; 500 nM): 96.47%; % Enzyme Activity (relative to DMSO controls) ([3]; 500 nM): 90.99%; % Enzyme Activity (relative to DMSO controls) ([4]; 500 nM): 88.35%; % Enzyme Activity (relative to DMSO controls) ([5]; 500 nM): 95.67%; % Enzyme Activity (relative to DMSO controls) ([6]; 500 nM): 102.30%; % Enzyme Activity (relative to DMSO controls) ([7]; 500 nM): 93.95%; % Enzyme Activity (relative to DMSO controls) ([8]; 500 nM): 72.05%; % Enzyme Activity (relative to DMSO controls) ([9]; 500 nM): 92.75%; remaining activity at 0.5 µM ([9]; 500 nM): 93.4%; % Enzyme Activity (relative to DMSO controls) ([10]; 500 nM): 94.45%; remaining activity at 0.5 µM ([10]; 500 nM): 96.7%; % Enzyme Activity (relative to DMSO controls) ([11]; 500 nM): 99.52%; remaining activity at 0.5 µM ([11]; 500 nM): 99.5%; % Enzyme Activity (relative to DMSO controls) ([12]; 500 nM): 96.62%; remaining activity at 0.5 µM ([12]; 500 nM): 98.4%
